Measured values from paper PMC6273932, “Xanthium strumarium as an Inhibitor of α-Glucosidase, Protein Tyrosine Phosphatase 1β, Protein Glycation and ABTS^+ for Diabetic and Its Complication” (Molecules, 2016).
In brackets after ≈: the same amount, converted by molar mass.

Columns and labels:
PTP1β = tested on: PTP1β; parameters: method as in ref 16 (Hwang et al.); conditions: compounds isolated from Zea mays L., ref 16 (Hwang et al.), cited from earlier work
[1] = tested on: α-glucosidase from Saccharomyces sp.; test: α-glucosidase inhibitory activity assay (pNPG substrate, absorbance 405 nm); assay type: biochemical
From the text: ^1H- and ^13C-NMR spectra and correlation NMR spectra such as COSY, HMBC, HMQC, and DEPT were obtained from a Bruker Avance DPX 400 (or 600) spectrometer (Berlin, Germany). These were obtained at operating frequencies of 400 MHz (^1H) and 100 (or 150) MHz (^13C) with CD3OD, (CD3)2SO, (CD3)2CO, or D2O and TMS was used as an internal standard; chemical shifts were reported in δ values. The α-glucosidase from Saccharomyces sp. (SSG) was purchased from Wako Pure Chemical Industries Ltd (Tokyo, Japan). […] All other chemicals and reagents used were of analytical grade.
The α-glucosidase inhibitory activity of the extracts and fractions was determined using a modified procedure reported method with a slight modification. The α-glucosidase activity was measured using the substrate p-nitrophenyl-α-D-glucopyranoside (pNPG), which is hydrolyzed by α-glucosidase to release the product p-nitrophenol, a colorant that can be monitored at 405 nm. The initial concentration of the enzyme solution was 0.62 unit/mL in 0.1 M phosphate buffer (pH 6.9) and the initial concentration of the substrate solution was 2 mM in the same phosphate buffer. The enzyme solution was mixed with water and the samples or controls in a clear 96-well microplate (flat bottom) and the reaction was initiated by addition of the substrate to the solution. The plates were incubated at 37 °C for 5 min and the reaction was terminated by the addition of 0.1 M Na2CO3. […] Background absorbance was determined using a non-enzyme control microplate containing the buffer and was subtracted from the absorbance of the samples and controls.

[2] = target: T1, protein tyrosine phosphatase 1β (PTP1β) (Homo sapiens, UniProt P18031); test: PTP1β inhibitory activity assay (colorimetric kit, IR5 phosphopeptide substrate); assay type: biochemical; conditions: - is no activity; for inhibition at 10 µg/mL: 10 μg/mL; for IC50: isolated compounds
T1 sequence (P18031 1-322 limits assumed): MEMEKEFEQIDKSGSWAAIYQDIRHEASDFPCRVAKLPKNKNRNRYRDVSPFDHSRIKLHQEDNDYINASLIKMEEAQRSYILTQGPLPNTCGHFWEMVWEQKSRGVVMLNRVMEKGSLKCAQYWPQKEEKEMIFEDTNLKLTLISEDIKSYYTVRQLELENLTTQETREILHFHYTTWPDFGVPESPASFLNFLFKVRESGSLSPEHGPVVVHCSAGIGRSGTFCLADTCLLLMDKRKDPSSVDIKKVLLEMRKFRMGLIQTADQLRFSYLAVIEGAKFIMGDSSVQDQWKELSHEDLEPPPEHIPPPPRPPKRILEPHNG
Procedure: PTP1β tyrosine phosphatase drug discovery kit is a colorimetric, non-radioactive assay designed to measure the phosphatase activity of purified PTP1β. […] Following incubation at 37 °C for 30 min, the reaction was terminated with the BIOMOL RED^TM reagent. The amount of […] produced was estimated by measuring the absorbance at 620 nm. The non-enzymatic hydrolysis of the IR5 substrate was corrected by measuring the increase in absorbance at 620 nm obtained in the absence of PTP1β enzyme.

[3] = tested on: advanced glycation end products (AGEs); test: AGEs inhibitory activity, bovine serum albumin-methylglyoxal assay (fluorescence); assay type: biochemical; conditions: 100 μg/mL
Procedure: The modified procedure of Lee et al. was followed. Bovine serum albumin (10 mg/mL) was incubated with 5 mM methylglyoxal in sodium phosphate buffer (100 mM; pH 7.4). […] All of the reagents and samples were […] by filtration through 0.2 μm membrane filters and the mixture was incubated at 37 °C for 7 days. The fluorescence intensity was measured at an excitation wavelength of 330 nm and an emission wavelength of 410 nm with a LS50B fluorescence spectrometer Perkin-Elmer Ltd., (Buckinghamshire, FLS, UK). Aminoguanidine was also tested as a known inhibitor.

[4] = tested on: rat lens aldose reductase; conditions: compounds from X. strumarium; cited from earlier work
[5] = tested on: recombinant aldose reductase; conditions: compounds from X. strumarium; cited from earlier work
[6] = ABTS^+ radical scavenging activity assay
Procedure: The method described by Li et al. was used with slight modifications. ABTS^+ diammonium salt (2 mM) and potassium persulfate (3.5 mM) were mixed, diluted in distilled water and kept in the dark at room temperature for 24 h before use. After addition of ABTS^+ solution to 10 µL of antioxidant, measurements were recorded at 10 min post reaction. The percentage inhibition of absorbance at 750 nm was calculated and plotted as a function of concentration of antioxidants. Trolox was used as positive control.

α-glucosidase = target: α-glucosidase; parameters: method as in ref 15 (Chen et al.); conditions: compounds isolated from aerial parts of Gynura divaricate; ref 15 (Chen et al.); read-out: inhibitory effects against α-glucosidase; cited from earlier work
[7] = Table 2, crude extract and fractions, - is no activity
[8] = isolated compounds, - is no activity

In the case of `O=c1c(O[C@@H]2O[C@H](CO)[C@@H](O)[C@H](O)[C@H]2O)c(-c2ccc(O)c(O)c2)oc2cc(O)cc(O)c12` [hirsutrin], the “PTP1β inhibitory activity IC50” value (PTP1β) is listed as “no activity”.

For `C[C@H]1O[C@H](O[C@H]2[C@H](O)[C@@H](O)[C@@H](O[C@H]3[C@H](O)[C@@H](O)C(O)O[C@@H]3CO)O[C@@H]2CO)[C@H](O)[C@@H](O)[C@@H]1N[C@H]1C=C(CO)[C@@H](O)[C@H](O)[C@H]1O` (stereo partly shown) [Acarbose, reference compound], the “Inhibition (%) α-glucosidase” value ([1]; 50 μg/mL, - is no activity) was 16.98%, the “Inhibition (%) α-glucosidase” value ([1]; 250 μg/mL) was 41.06% and the “Inhibition (%) α-glucosidase” value ([1]; 500 μg/mL) was 60.29%. For the same compound, the “Inhibition (%) α-glucosidase” value ([1]; 1000 μg/mL) was 106.14%, the “IC50 α-glucosidase” value [1, 7] was 377.19 ± 38.17 µg/mL (≈ 584 µM) and the IC50 ([1]; isolated compounds) was 585 µM. For the same compound, the “IC50 α-glucosidase” value [1, 8] was 377.19 ± 37.8 µg/mL (≈ 584 µM).

With `O=C(/C=C/c1ccc(O)c(O)c1)O[C@@H]1C[C@](OC(=O)/C=C/c2ccc(O)c(O)c2)(C(=O)O)C[C@@H](OC(=O)/C=C/c2ccc(O)c(O)c2)[C@H]1O` [compound 13, 1,3,5-tri-O-caffeoylquinic acid] the “Inhibition (%) α-glucosidase” value ([1]; 50 μg/mL, - is no activity) was 22.05%, the inhibition at 10 µg/mL [2] was 39.2% and the IC50 [2] was over 14.7 µM. For the same compound, the “Inhibition (%) AGEs” value [3] was 40.22%, the “rat lens aldose reductase inhibitory activity” value [4] was “strong” and the “recombinant aldose reductase inhibitory activity” value [5] was “strong”.

With `Cc1c(C)c2c(c(C)c1O)CCC(C)(C(=O)O)O2` (stereo not shown) [Trolox, reference compound] the “Inhibition (%) ABTS^+” value ([6]; 1.66 μg/mL) was 17.27%, the “Inhibition (%) ABTS^+” value ([6]; 8.33 μg/mL) was 54.14% and the “Inhibition (%) ABTS^+” value ([6]; 16.66 μg/mL) was 95.06%. For the same compound, the “IC50 ABTS^+” value [6, 7] was 7.51 ± 0.58 µg/mL (≈ 30 µM), the IC50 ([6]; isolated compounds) was 29.7 µM and the “IC50 ABTS^+ radical scavenging” value [6, 8] was 7.43 ± 0.71 µg/mL (≈ 29.7 µM).

For `O=C(/C=C/c1ccc(O)c(O)c1)O[C@@H]1C[C@@](OC(=O)/C=C/c2ccc(O)c(O)c2)(C(=O)O)C[C@@H](O)[C@@H]1O` [compound 12, 1,3-di-O-caffeoylquinic acid], the “Inhibition (%) α-glucosidase” value ([1]; 50 μg/mL, - is no activity) was 38.37%, the inhibition at 10 µg/mL [2] was 22.3% and the IC50 [2] was over 19.4 µM. For the same compound, the “Inhibition (%) AGEs” value [3] was 40.19%, the “rat lens aldose reductase inhibitory activity” value [4] was “strong” and the “recombinant aldose reductase inhibitory activity” value [5] was “strong”.

For `O=C(CCO)c1ccc(O)cc1` [compound 2, 3-hydroxy-1-(4-hydroxyphenyl) propan-1-one], the “Inhibition (%) α-glucosidase” value ([1]; 50 μg/mL, - is no activity) was 8.60%, the inhibition at 10 µg/mL [2] was 5.88% and the IC50 [2] was over 60.2 µM. For the same compound, the “Inhibition (%) AGEs” value [3] was 8.50%.

For `O=C(/C=C/c1ccc(O)c(O)c1)O[C@H]1[C@H](O)C[C@](O)(C(=O)O)C[C@H]1OC(=O)/C=C/c1ccc(O)c(O)c1` [3,4-di-O-CQA], the IC50 (α-glucosidase) is listed as 187 µM.

In the case of `COc1cc(-c2oc3cc(O)cc(O)c3c(=O)c2O[C@@H]2O[C@H](CO)[C@@H](O)[C@H](O)[C@H]2O)ccc1O` [3′-methoxyhirsutrin], the IC50 (PTP1β; read-out: PTP1β inhibitory activity IC50) is given as 64 µM.

In the case of `O=C(/C=C/c1ccc(O)c(O)c1)O[C@@H]1[C@H](O)C[C@@](O)(C(=O)O)C[C@H]1OC(=O)/C=C/c1ccc(O)c(O)c1` [4,5-di-O-CQA], the IC50 (α-glucosidase) is listed as 131 µM.

In the case of `COc1c(O)cc2oc(-c3ccc(O)c(O)c3)c(OC3OC(C(=O)O)C(O)C(O)C3O)c(=O)c2c1O` (stereo not shown) [compound 8, patuletin-3-glucuronide], the “Inhibition (%) α-glucosidase” value ([1]; 50 μg/mL, - is no activity) is reported as 6.11%, the inhibition at 10 µg/mL [2] is reported as under 0% and the IC50 [2] is reported as over 19.7 µM. For the same compound, the “Inhibition (%) AGEs” value [3] was 6.11%.
